Where two headings read alike, the source gives them in different places.
Key:
[1] = tested on: ben-1 mutant (ECA882) C. elegans; experiment: microbe, parasite or virus in culture; settings: Caenorhabditis elegans
In short: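 L1 larvae (~2 worms/μL in M9) in liquid NGM with 2-fold concentrated E. coli HB101, compound at 1% DMSO, 6 days at 20 °C shaking 165 rpm. Well images scored as summed worm-associated pixels, normalized to DMSO controls; relative viability averaged over at least three biological replicates.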

in vitro = settings: human; for viability at 2 days, 3.13 µM / viability at 2 days, 6.25 µM / viability at 2 days, 12.5 µM / viability at 2 days, 25 µM / viability at 2 days, 50 µM / viability at 2 days, 100 µM: HEK293 cells (Flp-In-293), HEK293 viability
L1 wild-type C. elegans = settings: for Screen "Hit": 50 μM
[2] = target: B. taurus (heart) complex I (Bos taurus, UniProt P03887+P17694+P42026); experiment: biochemical; type: biochemical; settings: for IC50: B. taurus heart mitochondria, read-out: B. taurus Complex I IC50; for activity at 0.0001 µM / activity at 0.0005 µM / activity at 0.001 µM / activity at 0.0025 µM / activity at 0.005 µM / activity at 0.013 µM / activity at 0.025 µM / activity at 0.063 µM / activity at 0.125 µM / activity at 0.313 µM / activity at 0.625 µM / activity at 1.5 µM / activity at 3 µM / activity at 15 µM / activity at 37.5 µM / activity at 75 µM: read-out: B. taurus mitochondrial complex I activity; for Log IC50 B. taurus complex I: log10 of IC50 in µM, B. taurus mitochondria
Chain of B. taurus (heart) complex I (P03887 whole entry): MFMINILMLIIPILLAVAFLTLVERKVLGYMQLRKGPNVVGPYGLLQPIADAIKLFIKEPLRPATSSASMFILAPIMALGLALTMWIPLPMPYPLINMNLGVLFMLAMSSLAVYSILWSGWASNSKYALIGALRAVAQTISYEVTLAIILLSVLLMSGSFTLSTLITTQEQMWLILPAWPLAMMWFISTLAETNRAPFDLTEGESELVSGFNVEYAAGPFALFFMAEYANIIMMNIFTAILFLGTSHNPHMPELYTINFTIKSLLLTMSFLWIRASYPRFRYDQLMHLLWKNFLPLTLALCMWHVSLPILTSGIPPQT
Chain of B. taurus (heart) complex I (P17694 34-463): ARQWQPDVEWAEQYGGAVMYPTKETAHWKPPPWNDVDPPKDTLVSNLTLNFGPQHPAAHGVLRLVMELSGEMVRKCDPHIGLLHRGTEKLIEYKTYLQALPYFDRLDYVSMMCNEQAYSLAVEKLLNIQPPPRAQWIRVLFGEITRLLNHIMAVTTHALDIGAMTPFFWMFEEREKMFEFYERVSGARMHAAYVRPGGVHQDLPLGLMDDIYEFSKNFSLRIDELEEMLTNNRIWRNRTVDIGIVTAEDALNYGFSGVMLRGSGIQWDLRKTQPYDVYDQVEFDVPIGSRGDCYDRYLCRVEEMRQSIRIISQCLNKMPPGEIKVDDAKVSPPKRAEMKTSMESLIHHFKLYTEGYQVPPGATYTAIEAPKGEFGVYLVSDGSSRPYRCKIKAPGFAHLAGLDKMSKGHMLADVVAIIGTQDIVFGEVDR
Chain of B. taurus (heart) complex I (P42026 38-216): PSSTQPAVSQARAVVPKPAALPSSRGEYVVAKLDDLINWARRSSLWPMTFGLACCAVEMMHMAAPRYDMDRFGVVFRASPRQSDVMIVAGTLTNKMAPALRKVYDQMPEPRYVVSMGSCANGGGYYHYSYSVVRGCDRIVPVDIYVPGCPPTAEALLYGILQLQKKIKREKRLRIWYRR
In short: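 Complex I activity followed as DCIP reduction (600 nm, 30 s reads, 15 min) with 80 μM NADH and 60 μM decylubiquinone in 25 mM KPi pH 7.5 containing 2 μM antimycin A and 2 mM KCN. Freeze-thawed mouse or bovine heart mitochondria at 0.2 mg/mL; initial-rate percent of solvent control, single-point 100 μM or dose-response.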

[3] = read-out: C. elegans (ben-1) Development & Viability Assay LC50
[4] = read-out: C. elegans ben-1(e1880) development/viability
[5] = read-out: C. elegans ben-1 log10 LC50 (converted)
[6] = HEK293 Cell Viability Assay LC50, HEK293 cells, estimated from fitted dose-response curves
[7] = hit = relative motility below 0.25 3 hours after removal of KCN
[8] = Dose 0.2 µM, mean of at least three biological replicates
[9] = estimated from fitted dose-response curves
[10] = KCN survival assay, hit = relative motility below 0.25

SMILES: Nc1nc2ccccc2n1CCOc1ccc(Br)cc1 [Compound 5842535]
- LC50 [1, 3]: 41.1 µM
- viability at 1 µM [1, 4]: 99.9%
- viability at 2 µM [1, 4]: 100%
- viability at 3.9 µM [1, 4]: 97.9%
- viability at 15.6 µM [1, 4]: 100%
- viability at 31.3 µM [1, 4]: 85.9%
- viability at 62.5 µM [1, 4]: 5.7%
- viability at 125 µM [1, 4]: 6%
- LC50 [1, 5]: 41 µM
- CC50 at 2 days (in vitro; [6]): 17.3 µM
- viability at 2 days, 3.13 µM (in vitro): 79.2%
- viability at 2 days, 6.25 µM (in vitro): 82.9%
- viability at 2 days, 12.5 µM (in vitro): 67.8%
- viability at 2 days, 25 µM (in vitro): 11%
- viability at 2 days, 50 µM (in vitro): 6.3%
- viability at 2 days, 100 µM (in vitro): 6.3%
- Screen "Hit" (L1 wild-type C. elegans; [7]): Y (hits were identified as compounds that reduced relative motility below 0.25 (75% reduction))
- C. elegans KCN Survival (L1 wild-type C. elegans; [8]): 1.013
- C. elegans KCN Survival (L1 wild-type C. elegans; Dose 0.39 µM): 1.010
- C. elegans KCN Survival (L1 wild-type C. elegans; Dose 1.56 µM): 1.035
- C. elegans KCN Survival (L1 wild-type C. elegans; Dose 3.13 µM): 1.110
- C. elegans KCN Survival (L1 wild-type C. elegans; Dose 6.25 µM): 1.056
- C. elegans KCN Survival (L1 wild-type C. elegans; Dose 12.5 µM): 0.989
- C. elegans KCN Survival (L1 wild-type C. elegans; Dose 25 µM): 0.572
- C. elegans KCN Survival (L1 wild-type C. elegans; Dose 50 µM): 0.188
- C. elegans KCN Survival (L1 wild-type C. elegans; Dose 100 µM): 0.200
- IC50 [2]: 12.7 µM
- activity at 0.0001 µM [2]: 89.6%
- activity at 0.0005 µM [2]: 91.9%
- activity at 0.001 µM [2]: 90.7%
- activity at 0.0025 µM [2]: 94.2%
- activity at 0.005 µM [2]: 96.1%
- activity at 0.013 µM [2]: 92.4%
- activity at 0.025 µM [2]: 87.8%
- activity at 0.063 µM [2]: 92.4%
- activity at 0.125 µM [2]: 92%
- activity at 0.313 µM [2]: 85.5%
- activity at 0.625 µM [2]: 84.7%
- activity at 1.5 µM [2]: 82.8%
- activity at 3 µM [2]: 67.2%
- activity at 15 µM [2]: 33.6%
- activity at 37.5 µM [2]: 3.2%
- activity at 75 µM [2]: 1.7%
- Log IC50 B. taurus complex I [2]: 1.10 µM

SMILES: Cc1ccc(C(C)C)c(OCC(O)Cn2cnc3ccccc32)c1 (stereo not shown) [Compound 6093301]
- LC50 [1, 3]: 366 µM
- viability at 1 µM [1, 4]: 94.1%
- viability at 2 µM [1, 4]: 98.7%
- viability at 3.9 µM [1, 4]: 95.9%
- viability at 15.6 µM [1, 4]: 96.4%
- viability at 31.3 µM [1, 4]: 97.2%
- viability at 62.5 µM [1, 4]: 83.6%
- viability at 125 µM [1, 4]: 88.1%
- viability at 250 µM [1, 4]: 88.4%
- viability at 500 µM [1, 4]: 12.5%
- viability at 1000 µM [1, 4]: 4.7%
- LC50 [1, 5]: 366 µM
- CC50 at 2 days (in vitro): 21.8 µM
- viability at 2 days, 3.13 µM (in vitro): 90.1%
- viability at 2 days, 6.25 µM (in vitro): 92.9%
- viability at 2 days, 12.5 µM (in vitro): 85.6%
- viability at 2 days, 25 µM (in vitro): 32.4%
- viability at 2 days, 50 µM (in vitro): 7.3%
- viability at 2 days, 100 µM (in vitro): 7.2%
- Screen "Hit" (L1 wild-type C. elegans; [7]): Y (hits were identified as compounds that reduced relative motility below 0.25 (75% reduction))
- C. elegans KCN Survival (L1 wild-type C. elegans; [8]): 1.001
- C. elegans KCN Survival (L1 wild-type C. elegans; Dose 0.39 µM): 1.016
- C. elegans KCN Survival (L1 wild-type C. elegans; Dose 1.56 µM): 1.025
- C. elegans KCN Survival (L1 wild-type C. elegans; Dose 3.13 µM): 0.981
- C. elegans KCN Survival (L1 wild-type C. elegans; Dose 6.25 µM): 0.940
- C. elegans KCN Survival (L1 wild-type C. elegans; Dose 12.5 µM): 0.855
- C. elegans KCN Survival (L1 wild-type C. elegans; Dose 25 µM): 0.337
- C. elegans KCN Survival (L1 wild-type C. elegans; Dose 50 µM): 0.161
- C. elegans KCN Survival (L1 wild-type C. elegans; Dose 100 µM): 0.196
- IC50 [2, 9]: 2.07 µM
- activity at 0.0001 µM [2]: 94.9%
- activity at 0.0005 µM [2]: 95.3%
- activity at 0.001 µM [2]: 95.9%
- activity at 0.0025 µM [2]: 100%
- activity at 0.005 µM [2]: 99.5%
- activity at 0.013 µM [2]: 100%
- activity at 0.025 µM [2]: 96.1%
- activity at 0.063 µM [2]: 94%
- activity at 0.125 µM [2]: 90%
- activity at 0.313 µM [2]: 81.5%
- activity at 0.625 µM [2]: 75.8%
- activity at 1.5 µM [2]: 60.4%
- activity at 3 µM [2]: 45.2%
- activity at 15 µM [2]: 18%
- activity at 37.5 µM [2]: 13.4%
- activity at 75 µM [2]: 11.2%
- Log IC50 B. taurus complex I [2]: 0.32 µM

SMILES: Cc1cccc(OCCn2c(C)nc3ccccc32)c1 [Compound 6285199]
- LC50 [1, 3]: 205 µM
- viability at 1 µM [1, 4]: 99.9%
- viability at 2 µM [1, 4]: 91.6%
- viability at 3.9 µM [1, 4]: 97.6%
- viability at 15.6 µM [1, 4]: 95.5%
- viability at 31.3 µM [1, 4]: 93.8%
- viability at 62.5 µM [1, 4]: 97.6%
- viability at 125 µM [1, 4]: 100%
- viability at 250 µM [1, 4]: 64.8%
- LC50 [1, 5]: 205 µM
- CC50 at 2 days (in vitro): 97.7 µM
- viability at 2 days, 3.13 µM (in vitro): 100%
- viability at 2 days, 6.25 µM (in vitro): 100%
- viability at 2 days, 12.5 µM (in vitro): 100%
- viability at 2 days, 25 µM (in vitro): 100%
- viability at 2 days, 50 µM (in vitro): 98.3%
- viability at 2 days, 100 µM (in vitro): 46.5%
- Screen "Hit" (L1 wild-type C. elegans; [7]): Y (hits were identified as compounds that reduced relative motility below 0.25 (75% reduction))
- C. elegans KCN Survival (L1 wild-type C. elegans; [8]): 1.002
- C. elegans KCN Survival (L1 wild-type C. elegans; Dose 0.39 µM): 1.011
- C. elegans KCN Survival (L1 wild-type C. elegans; Dose 1.56 µM): 0.994
- C. elegans KCN Survival (L1 wild-type C. elegans; Dose 3.13 µM): 1.093
- C. elegans KCN Survival (L1 wild-type C. elegans; Dose 6.25 µM): 0.980
- C. elegans KCN Survival (L1 wild-type C. elegans; Dose 12.5 µM): 0.810
- C. elegans KCN Survival (L1 wild-type C. elegans; Dose 25 µM): 0.165
- C. elegans KCN Survival (L1 wild-type C. elegans; Dose 50 µM): 0.143
- C. elegans KCN Survival (L1 wild-type C. elegans; Dose 100 µM): 0.167
- IC50 [2, 9]: 4.97 µM
- activity at 0.0001 µM [2]: 98.3%
- activity at 0.0005 µM [2]: 97.3%
- activity at 0.001 µM [2]: 100%
- activity at 0.0025 µM [2]: 95.3%
- activity at 0.005 µM [2]: 95.1%
- activity at 0.013 µM [2]: 97.1%
- activity at 0.025 µM [2]: 95.3%
- activity at 0.063 µM [2]: 88.5%
- activity at 0.125 µM [2]: 87.7%
- activity at 0.313 µM [2]: 83.8%
- activity at 0.625 µM [2]: 79%
- activity at 1.5 µM [2]: 67.9%
- activity at 3 µM [2]: 54%
- activity at 15 µM [2]: 18.4%
- activity at 37.5 µM [2]: 5.61%
- activity at 75 µM [2]: 1.08%
- Log IC50 B. taurus complex I [2]: 0.70 µM

SMILES: Cc1ccc(Cn2c(C(C)C)nc3ccccc32)cc1 [Compound 6586153]
- LC50 [1, 3]: 419 µM
- LC50 [1, 5]: 419 µM
- CC50 at 2 days (in vitro; [6]): > 100 µM
- Screen "Hit" (L1 wild-type C. elegans; [10]): Y (hits were identified as compounds that reduced relative motility below 0.25 (75% reduction))
- IC50 [2]: 57.6 µM
- Log IC50 B. taurus complex I [2]: 1.76 µM

SMILES: Cc1nc2ccccc2n1Cc1ccccc1Cl [Compound 6707368]
- LC50 [1, 3]: 135 µM
- LC50 [1, 5]: 135 µM
- CC50 at 2 days (in vitro): > 100 µM
- Screen "Hit" (L1 wild-type C. elegans; [10]): Y (hits were identified as compounds that reduced relative motility below 0.25 (75% reduction))
- IC50 [2, 9]: 3.96 µM
- Log IC50 B. taurus complex I [2]: 0.60 µM
